Reference: patent US12286632B2, “Rationally-designed synthetic peptide shuttle agents for delivering polypeptide cargos from an extracellular space to the cytosol and/or nucleus of a target eukaryotic cell, uses thereof, methods and kits relating to same” (Feldan Bio Inc., priority 2016, dated 2025)

Assays:
CHO cells = experiment: GFP-NLS transduction in different adherent and suspension cells (flow cytometry, Pos cells % and viability %); assay type: cell-based, Chinese hamster; conditions: Protocol B, 35 μM shuttle, 5 μM GFP-NLS, 10 seconds
Procedure: (§1) The media in wells was removed, cells were washed once with PBS previously warmed at 37° C., and the shuttle agent/cargo mixture was then added to cover all cells for the desired length of time. The shuttle agent/cargo mixture in wells was removed, the cells were washed once with PBS, and fresh complete medium was added. Before analysis, the cells were washed once with PBS and fresh complete medium was added.
(§2) The ability of the shuttle agent His-CM18-PTD4 to deliver GFP-NLS to the nuclei of different adherent and suspension cells using Protocols B (adherent cells) or C (suspension cells) as described in Example 9.1 was examined. The cell lines tested included: HeLa, Balb3T3, HEK 293T, CHO, NIH3T3, Myoblasts, Jurkat, THP-1, CA46, and HT2 cells, which were cultured as described in Example 1. GFP-NLS (5 μM; see Example 5.1) was co-incubated with 35 μM of His-CM18-PTD4 and exposed to adherent cells for 10 seconds (Protocol B), or was co-incubated with 5 μM of His-CM18-PTD4 and exposed to suspension cells for 15 seconds (Protocol C). […] “Pos cells (%)” is the mean percentages of all cells that emanate a GFP signal.

CA46 cells = experiment: as above; assay type: cell-based, Homo sapiens; conditions: Protocol C, 5 μM shuttle, 5 μM GFP-NLS, 15 seconds
Procedure: as §2

HT2 cells = experiment: as above; assay type: cell-based; conditions: Protocol C, 5 μM shuttle, 5 μM GFP-NLS, 15 seconds
Procedure: as §2

HeLa cells [1] = experiment: GFP-NLS and mCherry-NLS co-transduction, visualization by microscopy; assay type: cell-based, Human; conditions: each cargo 5 μM; shuttle 35 μM; 10 seconds, Protocol B
Procedure: as §1
• GFP-NLS recombinant protein (5 μM; see Example 5.1) and mCherry™-NLS recombinant protein (5 μM) were co-incubated together with 35 μM of His-CM18-PTD4, and then exposed to HeLa cells for 10 seconds using Protocol B as described in Example 9.1. After washing steps, the cells were immediately visualized by bright field and fluorescence microscopy at 20× magnifications as described in Example 3.2. Sample results are shown in FIG. 28, in which corresponding images showing bright field (FIG. 28A), DAPI fluorescence (FIG. 28B), GFP-NLS fluorescence (FIG. 28C), and mCherry™-NLS fluorescence (FIG. 28D) are shown. White triangle windows indicate examples of areas of co-labelling between GFP-NLS and mCherry™ fluorescence signals in cell nuclei. […] 9.7 GFP-NLS Transduction by his-CM18-PTD4 in THP-1 Suspension Cells: Flow Cytometry

HeLa cells [2] = experiment: Transfection plasmid surrogate assay for delivered CRISPR/Cas9-NLS complex (mCherry/GFP fluorescence); assay type: cell-based, Human; conditions: shuttle 35 μM; 24 and 48 hours post-transduction
Source text: This assay enables one to visually identify cells that have been successfully delivered an active […]as9 complex. […] Transfection of the cells with the expression plasmid results in mCherry™ expression, but no GFP expression (FIG. 39B). […] Successful transduction of an active CRISPR/Cas9 complex results in the CRISPR/Cas9 complex cleaving the plasmid DNA at the STOP codon (FIG. 39C). In a fraction of the cells, random non-homologous DNA repair of the cleaved plasmid occurs and results in removal of the STOP codon, and thus GFP expression and fluorescence (FIG. 39E).
On Day 1 of the transfection plasmid surrogate assay, DNA plasmids for different experimental conditions (250 ng) are diluted in DMEM (50 μL) in separate sterile 1.5-mL tubes, vortexed and briefly centrifuged. In separate sterile 1.5-mL tubes, Fastfect™ transfection reagent was diluted in DMEM (50 μL) with no serum and no antibiotics at a ratio of 3:1 (3 μL of Fastfect™ transfection reagent for 1 μg of DNA) and then quickly vortexed and briefly centrifuged. The Fastfect™/DMEM mixture was then added to the DNA mix and quickly vortexed and briefly centrifuged. The Fastfect™/DMEM/DNA mixture is then incubated for 15-20 min at room temperature, before being added to the cells (100 μL per well). The cells are then incubated at 37° C. and 5% CO2 for 5 h. […]

[3] = test system: 293T, Balb3T3, CHO, Myoblasts, Jurkat, CA46, HT2 and NIH3T3 cells; experiment: GFP-NLS transduction in several adherent and suspension cells, visualization by microscopy; assay type: cell-based; conditions: 35 μM, 10 seconds (adherent) or 5 μM, 15 seconds (suspension); GFP-NLS 5 μM
Procedure: GFP-NLS recombinant protein (5 μM; see Example 5.1) was co-incubated with 35 μM of His-CM18-PTD4 and exposed to adherent cells for 10 seconds using […], or was co-incubated with 5 μM of His-CM18-PTD4 and exposed to suspension cells for 15 seconds using Protocol B, as described in Example 9.1. After washing the cells, GFP fluorescence was visualized by bright field and fluorescence microscopy. Sample images captured at 10× magnifications showing GFP fluorescence are shown for 293T (FIG. 37A), Balb3T3 (FIG. 37B), CHO (FIG. 37C), Myoblasts (FIG. 370), Jurkat (FIG. 37E), CA46 (FIG. 37F), HT2 (FIG. 37G), and NIH3T3 (FIG. 37H) cells. The insets show corresponding flow cytometry results performed as described in Example 3.3, indicating the percentage of GFP-NLS-positive cells.
Nuclear localization of the GFP-NLS was further confirmed in fixed and permeabilized myoblasts using cell immuno-labelling as described in Example 3.2a. GFP-NLS was labeled using a primary mouse monoclonal anti-GFP antibody (Feldan, #A017) and a secondary goat anti-mouse Alexa™-594 antibody (Abcam #150116). Nuclei were labelled with DAPI. Sample results for primary human myoblast cells are shown in FIG. 38, in which GFP immuno-labelling is shown in FIG. 38A, and an overlay of the GFP immuno-labelling and DAPI labelling is shown in FIG. 38B.

CC[C@H](C)[C@H](NC(=O)[C@H](CCCCN)NC(=O)[C@H](CCCCN)NC(=O)[C@H](Cc1ccccc1)NC(=O)[C@H](CC(C)C)NC(=O)[C@H](CCCCN)NC(=O)[C@H](Cc1c[nH]c2ccccc12)NC(=O)[C@H](CCCCN)NC(=O)[C@H](Cc1c[nH]cn1)NC(=O)[C@H](Cc1c[nH]cn1)NC(=O)[C@H](Cc1c[nH]cn1)NC(=O)[C@H](Cc1c[nH]cn1)NC(=O)[C@H](Cc1c[nH]cn1)NC(=O)[C@@H](N)Cc1c[nH]cn1)C(=O)NCC(=O)N[C@@H](C)C(=O)N[C@H](C(=O)N[C@@H](CC(C)C)C(=O)N[C@@H](CCCCN)C(=O)N[C@H](C(=O)N[C@@H](CC(C)C)C(=O)N[C@H](C(=O)N[C@H](C(=O)NCC(=O)N[C@@H](Cc1ccc(O)cc1)C(=O)N[C@@H](C)C(=O)N[C@@H](CCCNC(=N)N)C(=O)N[C@@H](C)C(=O)N[C@@H](C)C(=O)N[C@@H](C)C(=O)N[C@@H](CCCNC(=N)N)C(=O)N[C@@H](CCC(N)=O)C(=O)N[C@@H](C)C(=O)N[C@@H](CCCNC(=N)N)C(=O)N[C@@H](C)C(=O)O)[C@@H](C)O)[C@@H](C)O)C(C)C)C(C)C [His-CM18-PTD4]
Cell viability (%) (±St. Dev.; n = 3) (CHO cells): 92.8 ± 0.1%
Mean % cells with GFP signal (±St. Dev.; n = 3) (CHO cells): 53.7 ± 4.6%
Cell viability (%) (±St. Dev.; n = 3) (CA46 cells): 71.6 ± 1.0%
Mean % cells with GFP signal (±St. Dev.; n = 3) (CA46 cells): 24.4 ± 0.6%
Cell viability (%) (±St. Dev.; n = 3) (HT2 cells): 90.6 ± 1.5%
Mean % cells with GFP signal (±St. Dev.; n = 3) (HT2 cells): 30.5 ± 2.5%
co-delivery of GFP-NLS and mCherry-NLS (microscopy) (HeLa cells [1]): successfully delivered together to the nucleus
GFP expression after CRISPR/Cas9-NLS cleavage of plasmid surrogate (HeLa cells [2]): GFP fluorescence, the latter resulting from removal of the STOP codon by the transduced CRISPR/Cas9-NLS complex
GFP-NLS nuclear delivery (microscopy) [3]: successfully delivered to the nucleus of all the tested cells
